A word on the melting point: it is the temperature, or range, at which the solid turns liquid.

Take `COC(=O)c1nc(-c2ccccn2)n2c1CN=C(c1ccccc1Cl)c1cc(Cl)ccc1-2`: the melting point lay in the range of 282 to 285 °C. The same measure for `Cc1c(NC(=O)c2ccc(OC[C@@H]3CCCO3)cc2)ccc2cc(CNCC3CC3)cnc12`: 156 to 158 °C; for `O=[N+]([O-])c1cc(OCc2ccccc2)ccc1CCO`: 48 to 52 °C.

As for `Cc1cc(C)cc(NC(=O)Nc2ccc(-c3c(C(N)=O)[nH]c4ccccc34)cc2)c1`, the melting point fell in the range of 168 to 170 °C.

In turn, `O=C(NCc1ccc(C(F)(F)F)c(N2CCCCC2)c1)Nc1cccc2c1CC(O)CC2` (stereo not drawn) had a melting point of 163 °C. The value for `Cc1nc(Sc2cc(C(=O)O)c3ccccc3n2)sc1CC(=O)O` was 206 to 208 °C; that for `Cc1ccc(NC(N)=S)nc1` was 178 to 181 °C; that for `CCCCCCCCCCCCCCCCOCC(CC(CCCCCCCCCCCCCC)C(=O)NCCO)OCc1ccccc1` (stereo not drawn) was 39 to 40 °C.

Turning to `O=C(c1ccc(F)cc1)C1CCN(CCCCl)CC1`, the melting point was in the range of 66.5 to 68.5 °C. The value for `Nc1ccc(-c2cnc(CSCCOc3ccccc3)o2)cc1` was 110 to 111 °C. Regarding `O=C(/C=C/c1ccccc1[N+](=O)[O-])N1CCN(C(=O)c2cc(C(F)(F)F)cc(C(F)(F)F)c2)[C@H](Cc2c[nH]c3ccccc23)C1`, the melting point lay within 125 to 133 °C. The same measure for `CN(C(=O)CCS(C)=O)c1cnc(-c2cncc(F)c2)s1` (stereo not drawn): 152 to 154 °C; for `CCOC(=O)C1=C(C)NC(=S)N(C(=O)OC)C1c1cccc([N+](=O)[O-])c1` (stereo not drawn): 150 to 151 °C. The same measure for `CCCCCCCOCCC(=O)Oc1ccc(N=Nc2ccc(OCCCCCC)cc2)cc1`: 69 °C; for `Cn1c(COc2ccc(CC3SC(=O)NC3=O)cc2)nc2ccc(Oc3ccc(CCNC(=O)Nc4ccc(F)cc4F)cc3)cc21` (stereo not drawn): 161 to 164 °C.

Take `CS(=O)(=O)N(c1cc(F)c(F)cc1C#N)S(C)(=O)=O`: the melting point amounted to 144 °C.

In the case of `OCCc1c(Br)cc(Br)c2cccnc12`, the melting point lay in the range of 128 to 131 °C.

Molecule `CC(C)(C)OC(=O)C(=[N+]=[N-])C(=O)COCc1ccccc1` returned a melting point of 68 °C. `CC(=O)Nc1ccc(CCCON2CCC(C(=O)c3nc4ccccc4s3)CC2)cc1` displayed a melting point of 171 to 172 °C. Molecule `CS(=O)c1nnc(-c2cc(C(C)(C)C)c(O)c(C(C)(C)C)c2)s1` (stereo not drawn) gave a melting point of 141 °C. Molecule `Cn1cccc1CNCC1(c2cccc(C(F)(F)F)c2)CCN(C(=O)CN2CCN(c3cnccn3)CC2)CC1` showed a melting point of 104 to 105 °C.

In turn, `COC[C@H]1CN(c2ccc([C@H]3CC[C@H](OCSC)CC3)cc2)C(=O)O1` gave a melting point of 54 to 56 °C. The value for `CCc1cn(C2CC(OC)C(CO)O2)c(=O)[nH]c1=O` (stereo not drawn) was 118 to 127 °C; that for `COC(=O)c1cnc(NC(C)C)nc1C` was 118 to 119 °C. On to `CCOC(=O)C(C)(C)c1nsc2ccc(-n3c(=O)cc(C(F)(F)F)n(C)c3=O)cc12`, for which the melting point is 164 to 167 °C. The same measure for `CCOC(=O)c1cc(C=O)ccc1O`: 67 to 69 °C; for `COc1ccccc1-c1ccc(S(=O)(=O)Nc2onc(C)c2Br)s1`: 114 to 117 °C. The same measure for `CN[C@H]1CCN(c2c(F)cc3c(=O)n(NC)c(=O)n(C4CC4)c3c2Cl)C1`: 77 to 79 °C.

In turn, `CC(C)(C)C(=O)c1cncnc1` came in with a melting point of 64 to 66 °C.

In the case of `CCNC(=O)CC(Cc1cccc2ccccc12)C(=O)NC(Cc1c[nH]cn1)C(=O)NC(CC(C)C)C(O)C(=O)OC` (mixture of isomers), the melting point was in the range of 103 to 108 °C. The same measure for `CCc1nn(C)c(N)c1Cl`: 50 to 51 °C; for `COC(=O)c1cc2c3ccccc3nc(C)n2n1`: 155 to 156 °C; for `CN(C)Cc1nnc2n1-c1ccc(Br)cc1C(c1ccccn1)=NC2`: 163 to 164 °C. The same measure for `O=C(O)c1ncn2c1CN=C(c1ccccc1)c1cc(Cl)ccc1-2`: 268 to 270 °C; for `O=C(O)c1ccc(NC(=O)C(F)(F)F)cc1`: 277 to 278 °C; for `CCCCCCC(C)(C)c1ccc(C2CCCNC2)c(O)c1` (stereo not drawn): 138 to 140 °C.

For `CCCCCCCC(O)CC(=O)O` (stereo not drawn), the melting point was in the range of 55 to 56 °C.

In turn, `COCCC(=O)c1cc2c(=O)n(NS(C)(=O)=O)c(=O)[nH]c2cc1C(F)(F)F` had a melting point of 186 to 191 °C.

In turn, `O=C(NCCCN1CCCCC1)c1ccc(-c2ccc3nnn(Cc4ccc5ncccc5c4)c3n2)cc1F` came in with a melting point of 135 to 137 °C. The same measure for `CN(C(=O)CN1C(=O)c2ccccc2C1=O)c1ccc(Cl)c(CO)c1Cl`: 236 to 241 °C; for `Cn1c(C2CC2)nc2cc(C(=O)NC3CC3)c(NC(=O)c3cc(C(F)(F)F)nn3-c3ncccc3Cl)c(Cl)c21`: 233 to 235 °C; for `O=c1ccc(-c2c(-c3ccccc3)nn3ccccc23)nn1C1CN2CCC1CC2` (stereo not drawn): 191 to 193 °C. The value for `COc1cccc(CC(=O)O)c1OCCCc1cn(-c2ccc(F)cn2)nc1C(C)C` was 125 to 126 °C. The molecule `Cc1cn(-c2cc(NC(=O)c3ccc(C)c(/C=C/n4cnc5c(N)ncnc54)c3)cc(C(F)(F)F)c2)cn1` came in with a melting point of 258 °C. Molecule `CN1C(=O)C(c2cccc(C#Cc3ccccc3)c2)(c2cc(C=O)n(CCCF)c2)N=C1N` (stereo not drawn) had a melting point of 85 to 90 °C. The same measure for `COC12CC(CCOC(=O)c3[nH]c(C)cc3C)CN(C)C1Cc1cn(C)c3cccc2c13` (stereo not drawn): 152 to 153 °C.

`COc1ccc(C(=O)O)c(OCc2cccc(OCc3ccc4ccccc4n3)c2)c1` yielded a melting point of 117 to 118 °C. The value for `CSCCC1NCCNC1=O` (stereo not drawn) was 68 to 70 °C. In the case of `CCOC(=O)C1=C(C)Nc2nc(N3CCOCC3)nc(N3CCOCC3)c2C1c1ccccc1` (stereo not drawn), the melting point is 178 °C. `COc1cccc(OC)c1C(=O)Nc1cccc2c1CCN(C)C2` registered a melting point of 191 to 192 °C. Molecule `O=C(Cc1ccc(Cl)cc1Cl)c1ccc(Cl)cc1` yielded a melting point of 119 °C. The same measure for `CC(C)Cn1c(CNC(=O)C2CC2)nc2c(N)nc3ccccc3c21`: 215 to 216 °C; for `C=C1C(O)C(CO)OC1n1cc(CC)c(=O)[nH]c1=O` (stereo not drawn): 137 to 139 °C. The same measure for `N/N=C/c1ccc(-c2ncn(-c3ccc(OC(F)(F)F)cc3)n2)cc1`: 222 to 226 °C; for `Cn1cnnc1C(O)(c1ccc(I)cc1)c1ccc2c(c1)C(c1cccc(Cl)c1)Nc1nnnn1-2` (stereo not drawn): 201 °C; for `CCOC(=O)C1=Cc2cc(Cl)c(C)c(Cl)c2OC1C(F)(F)F` (stereo not drawn): 117 to 120 °C. On to `C/C(=C(\C#N)C(N)=S)N1CCCN(c2ccc(Br)cc2)CC1`, for which the melting point lay in the range of 152 to 155 °C. The value for `COc1ccccc1N=Nc1ncc[nH]1` was 152 to 153 °C. The same measure for `O=C(CBr)c1ccc(-c2ccc(F)cc2)cc1`: 102 to 103 °C. The same measure for `CCOC(=O)Cc1csc(NC(=O)C(F)(F)F)n1`: 119 to 121 °C; for `COc1ccc(S(=O)(=O)Nc2ccccc2NC(=O)c2cccnc2)cc1`: 179 to 180 °C. `C=CCc1cn2c(=O)c(C(=O)OCC)cnc2c2cc(OC)ccc12` displayed a melting point of 182 to 186 °C.

`COC=C(Br)c1c(C(F)(F)F)nc(C(F)F)c(C(=O)OC)c1CC1CC1`: the melting point lay in the range of 79 to 79.5 °C. The same measure for `Cn1cncc1C(O)(c1ccc(I)cc1)c1ccc2c(c1)c(-c1cccc(Cl)c1)cc(=O)n2C` (stereo not drawn): 197 °C; for `COc1ccc(Br)c(O)c1O`: 122 to 124 °C. `CCn1ccc2c(C)nc3c(Br)cnn3c21` gave a melting point of 113 to 114 °C. As to `Cc1c(C#N)cc(C(C)(C)C)c(O)c1C(=O)Nc1ccc(S(=O)(=O)c2ccc(Br)cc2)cc1C(F)(F)F`, the melting point fell in the range of 221 to 223 °C. The value for `COc1ccc(/C=C/C(=O)N[C@@H]2N=C(c3ccccc3)c3ccccc3N(C)C2=O)cc1` was 129 to 133 °C; that for `CCOP(=O)(OCC)SCc1ccc(-c2nc(S)c3cc(Br)ccc3n2)cc1` was 196 to 199 °C; that for `COC(=O)c1ccccc1SSc1ccccc1C(=O)Nc1ccc(S(N)(=O)=O)cc1` was 288 to 290 °C.

The molecule `OC1CSC(Oc2ccc(-c3cccnc3F)nc2)C(O)C1O` (stereo not drawn) showed a melting point of 181 °C. In turn, `O=C(O)COc1cccc2c1CCC(CNC(=O)OC(c1ccccc1)c1ccccc1)C2` (stereo not drawn) displayed a melting point of 160 to 161 °C. The same measure for `CC(C)(C)c1ccc2c(c1)C(=O)CC2`: 94 to 96 °C; for `Cc1cc2c(cc1C(=O)O)CCC(CCN1CCCC1)=C2`: 258 to 259 °C; for `Nc1nc(COCCO)nc2nccnc12`: 149 to 151 °C. The value for `CN1Cc2c(C(=O)OC(C)(C)C)ncn2-c2cccnc2C1=O` was 234 to 236 °C; that for `CC(C)(C)C(=O)N1C(=O)C(C)(C)NC(C)(C)C1=O` was 100 to 102 °C. `COc1ccc(Br)c(-c2nc(=S)n(Cc3ccccc3)[nH]2)c1` showed a melting point of 154 to 155 °C.

`CC1CCC(C(C)C)C(OC(=O)/C=C\C(=O)c2ccccc2)C1` (stereo not drawn) had a melting point of 85 to 87 °C.

Molecule `CCCCCCCCCCCCCCCCOc1ccc(OCC(=O)O)cc1` showed a melting point of 125 to 127 °C.

`CS(=O)(=O)NC(=O)CCn1c2ccc(O)cc2c2c3c(c(-c4ccccc4Cl)cc21)C(=O)NC3=O` gave a melting point of 290 to 296 °C. `CC(CC(=O)O)C(=O)c1ccc(C(=O)C(C)CC(=O)O)cc1` (stereo not drawn) came in with a melting point of 195 to 202 °C. The value for `Cc1n[nH]c(C)c1Cc1cc(Cl)cc(Cl)c1` was 133 to 134 °C; that for `CC(O)C(=O)N[C@H](C(=O)NC(Cc1ccccc1)C(O)CNCC(O)C(Cc1ccccc1)NC(=O)OC(C)(C)C)C(C)C` (stereo partly drawn) was 210 to 214 °C; that for `c1coc(-c2nc3nsnc3nc2-c2ccncn2)c1` was 233 to 235 °C.

In the case of `CC(COc1ccc(O)c(C(N)=O)c1)N(Cc1ccccc1)CC(O)COc1ccc(OCc2ccccc2)cc1` (stereo not drawn), the melting point lay within 149 to 160 °C.

In turn, `CCOP(=O)(OCC)C(Nc1nc2ccccc2[nH]1)P(=O)(OCC)OCC` came in with a melting point of 169 to 170 °C. Turning to `Cn1c(C(=O)O)c(Oc2ccccc2N)c2ccccc21`, the melting point fell in the range of 193 to 194 °C.
